Values quoted from earlier work as cited in patent US20060058589A1, “Animal model to evaluate visceral pain perception” (priority 2002, published 2006).

System: visceromotor response to duodenal distention
Conditions: conscious, freely moving rats; dose-dependent manner

## CN1CC[C@]23c4c5ccc(O)c4O[C@H]2[C@@H](O)C=C[C@H]3[C@H]1C5 [morphine]
  visceromotor response to duodenal distention: inhibited
